Data: patent publication US6723897B2, “Methods for controlling gibberellin levels” (Monsanto Technology, LLC, priority 1998, dated 2004)

Tests used:
Type in all cases: in vivo, Glycine max
wild-type A3237 soybean = assay: Hilum treatment of soybean seeds, seedling growth and development, wild-type soybean; design: key to Emergence timing / Hypocotyl length (6 DAP) / 1st internode length (12 DAP) / 3rd internode length (20 DAP): pos: emergence faster/stem segment longer than controls; 0: emergence timing/stem segment length similar to controls; neg: emergence slower/stem segment shorter than controls; conditions: for 1st internode length (12 DAP) / Emergence timing / Hypocotyl length (6 DAP): single rate per compound 8.3-16.5 μg/seed
Protocol: In the previous experiments, the effect of various GA compounds on transgenic, GA-deficient and wild-type soybean is evaluated by treating seeds with these compounds via imbibition. Several of these compounds are not completely soluble in water, which limited the interpretation of their utility in rescuing GA-deficient dwarf plants. The purpose of this experiment is to reevaluate selected, previously tested compounds, and additional compounds, by introducing them to the seed via the hilum. As shown by the results presented below, direct application of small quantities of GA compounds dissolved in an organic solvent to the hilum is an effective method of treating soybean seeds. As in the previously described experiments, comparison is made between activity on GA-deficient soybean seedlings and normal (wild-type) seedlings. […] soybean seeds are supplied by Asgrow Seed Company (Des Moines, Iowa). Seed of GA-deficient transgenic soybean line 719 is created by transformation of […] soybean with pMON29801 (FMV/antisense CPScc). Fifth generation seed (R5) is used for these experiments. […] When multiple droplets are applied, each 1 μl droplet is allowed to dry before subsequent droplets are added. Ethanol minus compound is used a treatment control. […] (29° C.) and 75° F. (24° C.), respectively. Emergence timing is measured by counting the number of emerged seedlings at different times after planting. Emergence is defined as the presence of cotyledons raised to soil level or above. […] To assess the ability of a seed treatment to deliver biological activity beyond the first internode, measurements are taken on selected treatments after prolonged growth and development.

[1] = test system: constitutively GA-deficient transgenic dwarf soybean line 719; assay: Experiment IV field test, seed imbibition, compacted soil; conditions: for No. of Dwarfs Not Rescued / Total Plants: imbibed 8 hours; for Total Plants: 25 seeds planted; for % of Dwarfs Rescued: relative to 8.5 true dwarfs per plot; for field result on line 719 in words: over the rates tested (0.0025-0.25 mg/ml)
Text: The objective of these experiments is to determine if there is a greenhouse to field translation of results with selected GA compounds with respect to rescue of constitutively GA-deficient transgenic dwarf soybeans and elongation of wild-type plants. […] For the first field trial, the solutions previously used for the second greenhouse test, and stored in the freezer, are employed. […] For comparison, freshly prepared solutions of GA3 are also employed. The compounds tested included kaurenoic acid, fresh GA3, stored GA3, GA3-3-acetate, GA5, GA9, and GA12. […] Seeds of line […] are imbibed for 8 hours. Untreated dry seeds served as controls. After imbibition, the remaining solutions are returned to the freezer. Seeds are kept on the benchtop at room temperature overnight. […] Untreated dry seeds served as controls. Following planting line 719, all plots (both […] and line 719) are compacted by driving an all-terrain vehicle over the planted rows twice, and watered. All GA solutions are discarded. The results are shown in Table 15 for constitutively GA-deficient transgenic dwarf line 719 only as insufficient […] germinated to make any useful observations. Observations included number of plants that germinated, number rescued, and visual observations. Two points should be noted concerning the data in Table 15. […] Next, the number of dwarfs not rescued in any treatment is subtracted from 8.5.

[2] = test system: constitutively GA-deficient transgenic dwarf soybean line 719; assay: Experiment II second greenhouse test, seed imbibition, GA-deficient soybean; conditions: seeds imbibed 6 hours
Protocol: (The compounds are tested in Experiment I at only one concentration, i.e., 0.25 mg/ml). Test tubes contained […] of ethanol solution per tube. Final volumes are made up to 30 ml with deionized water. After shaking, the treatment solutions (15 ml each) are transferred to each of two 50 ml test tubes. […] Twenty seeds are used in each treatment. Dry seed, ethanol/water-imbibed seed (1% ethanol in water, v/v), and water-imbibed seeds are included as controls. Seeds are imbibed for 6 hours in the test solutions, then planted in bread pans containing Metromix 350 (The Scotts Company, Marysville, Ohio), and covered with 0.5″ Metro-mix. Covered pans are transferred to the greenhouse and subirrigated. Illumination is at a light intensity of 300-400 μmolm^−2s^−1 photosynthetic photon flux; 16 hours light/8 hours dark. Subsequent waterings are also through sub-irrigation until the test is terminated three weeks later. Observations included the number of dwarf, intermediate, and tall plants; plant height; uniformity of rescue; and any visual effects. Digital photographs are also taken.

[3] = test system: constitutively GA-deficient transgenic dwarf soybean line 719; assay: Experiment I greenhouse test, seed imbibition, GA-deficient soybean; design: Observation on Transgenic Line 719: key: −1: treated plants are shorter as compared to untreated plants; 0: treated plants had the same stature as untreated plants; 1: treated plants are slightly elongated as compared to untreated plants; 2: treated plants are moderately elongated as compared to untreated plants; 3: treated plants are highly elongated as compared to untreated plants; 4: treated plants are extremely elongated as compared to untreated plants; conditions: 0.25 mg/ml; for effect in both the constitutive transgenic dwarf and wild-type soybean lines: imbibition, lines 719 and A3237; for Observation on Transgenic Line 719: seeds imbibed 5 hours
Text: Seeds are covered with 0.5″ of vermiculite.

[4] = test system: constitutively GA-deficient transgenic dwarf soybean line 719; assay: Fifth and sixth field tests, emergence after seed imbibition; conditions: for Total Emerged: 50 seeds imbibed 5 hours
Protocol: Fresh stock solutions of compounds are prepared for this test. Kaurenoic acid is tested at 0.025 and 0.25 mg/ml; GA3 is tested at 0.025, 0.25, and 0.5 mg/ml; GA3-3-acetate at 0.025 and 0.25 mg/ml; GA5 at 0.025 and 0.25 mg/ml; GA9 at 0.025 and 0.04 mg/ml; and GA12 at 0.025 and 0.25 mg/ml. Stock solutions are prepared in ethanol in 50 ml plastic centrifuge tubes; deionized water is then added to make up the volumes to 30 ml. The final solutions contained 300 μl ethanol in 30 mls. […] Seeds are imbibed for 6 hours, and planted 1″ deep in a single row in moist to wet soil. They are then covered with dry soil, and the row is compacted twice with an all-terrain vehicle. Untreated dry seeds served as controls. The GA solutions are placed on dry ice until reuse the next day.
The next day, additional seeds of constitutive transgenic dwarf line 719 (50 seeds/treatment) are imbibed in the remaining treatment solutions for 5 hours, and planted in moist soil. The rows are compacted twice.

SMILES: C=C1C[C@]23C[C@@]1(O)CC[C@H]2[C@@]12C=C[C@H](O)[C@@](C)(C(=O)O1)[C@H]2[C@@H]3C(=O)O [GA3, gibberellic acid]
- Lowest rate where biological activity is observed, 1st internode length (10 DAP) (wild-type A3237 soybean; rate response): 1 μg/seed
- Lowest rate where biological activity is observed, emergence timing (wild-type A3237 soybean; rate response): 0.1 μg/seed
- Lowest rate where biological activity is observed, hypocotyl length (5 DAP) (wild-type A3237 soybean; rate response): 0.1 μg/seed
- 1st internode length (12 DAP) (wild-type A3237 soybean): 0
- Emergence timing (wild-type A3237 soybean): pos
- Hypocotyl length (6 DAP) (wild-type A3237 soybean): pos
- No. of Dwarfs Not Rescued ([1]; fresh solution 0.0025 mg/ml): 0
- Total Plants ([1]; fresh solution 0.0025 mg/ml): 13
- % of Dwarfs Rescued ([1]; fresh solution 0.0025 mg/ml): 100%
- No. of Dwarfs Not Rescued ([1]; fresh solution 0.025 mg/ml): 1
- Total Plants ([1]; fresh solution 0.025 mg/ml): 13
- % of Dwarfs Rescued ([1]; fresh solution 0.025 mg/ml): 88.2%
- No. of Dwarfs Not Rescued ([1]; fresh solution 0.25 mg/ml): 0
- Total Plants ([1]; fresh solution 0.25 mg/ml): 1
- % of Dwarfs Rescued ([1]; fresh solution 0.25 mg/ml): 100%
- field result on line 719 in words [1]: poor emergence at all rates
- No. of Dwarfs Not Rescued ([1]; stored solution 0.0025 mg/ml): 0
- Total Plants ([1]; stored solution 0.0025 mg/ml): 14
- % of Dwarfs Rescued ([1]; stored solution 0.0025 mg/ml): 100%
- Visual Observations on Transgenic Line 719 ([1]; stored solution 0.025 mg/ml): Extremely elongated plants
- No. of Dwarfs Not Rescued ([1]; stored solution 0.025 mg/ml): 0
- Total Plants ([1]; stored solution 0.025 mg/ml): 9
- % of Dwarfs Rescued ([1]; stored solution 0.025 mg/ml): 100%
- Visual Observations on Transgenic Line 719 ([1]; stored solution 0.25 mg/ml): Extremely elongated plants
- No. of Dwarfs Not Rescued ([1]; stored solution 0.25 mg/ml): 0
- Total Plants ([1]; stored solution 0.25 mg/ml): 7
- % of Dwarfs Rescued ([1]; stored solution 0.25 mg/ml): 100%
- Significant Visual Observations on Line 719 ([2]; 0.0025 mg/ml): Excessive elongation
- Significant Visual Observations on Line 719 ([2]; 0.025 mg/ml): Excessive elongation
- Significant Visual Observations on Line 719 ([2]; 0.25 mg/ml): Excessive elongation
- effect in both the constitutive transgenic dwarf and wild-type soybean lines [3]: excessive elongation
- Observation on Transgenic Line 719 [3]: 3
- Total Emerged ([4]; 0.025 mg/ml): 15
- Total Emerged ([4]; 0.25 mg/ml): 9
- Total Emerged ([4]; 0.5 mg/ml): 1

SMILES: C=C1C[C@]23C[C@@]1(O)CC[C@H]2[C@@]12C=C[C@H](OC(C)=O)[C@@](C)(C(=O)O1)[C@H]2[C@@H]3C(=O)O [GA3-3-acetate]
- 1st internode length (12 DAP) (wild-type A3237 soybean): 0
- Emergence timing (wild-type A3237 soybean): pos
- Hypocotyl length (6 DAP) (wild-type A3237 soybean): pos
- field result on line 719 in words [1]: excessive elongation, and no uniformity in plant height
- No. of Dwarfs Not Rescued ([1]; stored solution 0.0025 mg/ml): 0
- Total Plants ([1]; stored solution 0.0025 mg/ml): 21
- % of Dwarfs Rescued ([1]; stored solution 0.0025 mg/ml): 100%
- No. of Dwarfs Not Rescued ([1]; stored solution 0.025 mg/ml): 0
- Total Plants ([1]; stored solution 0.025 mg/ml): 1
- % of Dwarfs Rescued ([1]; stored solution 0.025 mg/ml): 100%
- Visual Observations on Transgenic Line 719 ([1]; stored solution 0.25 mg/ml): Extremely elongated plants
- No. of Dwarfs Not Rescued ([1]; stored solution 0.25 mg/ml): 0
- Total Plants ([1]; stored solution 0.25 mg/ml): 3
- % of Dwarfs Rescued ([1]; stored solution 0.25 mg/ml): 100%
- Significant Visual Observations on Line 719 ([2]; 0.0025 mg/ml): good rescue, with no overelongation
- Significant Visual Observations on Line 719 ([2]; 0.025 mg/ml): Poor rescue
- Significant Visual Observations on Line 719 ([2]; 0.25 mg/ml): Excessive elongation
- effect in both the constitutive transgenic dwarf and wild-type soybean lines [3]: excessive elongation
- Observation on Transgenic Line 719 [3]: 3
- Total Emerged ([4]; 0.025 mg/ml): 2
- Visual Observations on Transgenic Line 719 ([4]; 0.25 mg/ml): Overelongation
- Total Emerged ([4]; 0.25 mg/ml): 1

SMILES: C=C1C[C@]23C[C@@]1(O)CC[C@H]2[C@@]12CC=C[C@@](C)(C(=O)O1)[C@H]2[C@@H]3C(=O)O [GA5]
- 3rd internode length (20 DAP) (wild-type A3237 soybean; rate 9.7 μg/seed): pos
- Lowest rate where biological activity is observed, 1st internode length (10 DAP) (wild-type A3237 soybean; rate response): 1 μg/seed
- Lowest rate where biological activity is observed, 3rd internode length (20 DAP) (wild-type A3237 soybean; rate response): 1 μg/seed
- Lowest rate where biological activity is observed, emergence timing (wild-type A3237 soybean; rate response): 0.1 μg/seed
- Lowest rate where biological activity is observed, hypocotyl length (5 DAP) (wild-type A3237 soybean; rate response): 1 μg/seed
- 1st internode length (12 DAP) (wild-type A3237 soybean): pos
- Emergence timing (wild-type A3237 soybean): pos
- Hypocotyl length (6 DAP) (wild-type A3237 soybean): pos
- field result on line 719 in words [1]: slight to excessive elongation, and no uniformity in plant height
- No. of Dwarfs Not Rescued ([1]; stored solution 0.0025 mg/ml): 8
- Total Plants ([1]; stored solution 0.0025 mg/ml): 25
- % of Dwarfs Rescued ([1]; stored solution 0.0025 mg/ml): 5.9%
- No. of Dwarfs Not Rescued ([1]; stored solution 0.025 mg/ml): 0
- Total Plants ([1]; stored solution 0.025 mg/ml): 20
- % of Dwarfs Rescued ([1]; stored solution 0.025 mg/ml): 100%
- Visual Observations on Transgenic Line 719 ([1]; stored solution 0.25 mg/ml): Extremely elongated plants
- No. of Dwarfs Not Rescued ([1]; stored solution 0.25 mg/ml): 0
- Total Plants ([1]; stored solution 0.25 mg/ml): 7
- % of Dwarfs Rescued ([1]; stored solution 0.25 mg/ml): 100%
- Significant Visual Observations on Line 719 ([2]; 0.0025 mg/ml): Good rescue of dwarfs
- Significant Visual Observations on Line 719 ([2]; 0.025 mg/ml): good rescue, with no overelongation
- Significant Visual Observations on Line 719 ([2]; 0.25 mg/ml): Excessive elongation
- effect in both the constitutive transgenic dwarf and wild-type soybean lines [3]: excessive elongation
- Observation on Transgenic Line 719 [3]: 4
- Visual Observations on Transgenic Line 719 ([4]; 0.025 mg/ml): good emergence with good rescue
- Total Emerged ([4]; 0.025 mg/ml): 21
- Total Emerged ([4]; 0.25 mg/ml): 3
